Experimental data published in patent publication US5466784A, “Monoclonal antibodies to salinomycin and method for detecting the same” (The United States of America as represented by the …, priority 1993, dated 1995).

Experiments:
[1] = tested on: the 16 anti-salinomycin monoclonal antibodies SAL02-SAL13 and SAL22-SAL25; experiment: Competitive inhibition ELISA, result stated for the antibodies as a group; assay type: binding, mouse
Protocol: (§1) The supernatant culture fluid from the cloned hybridomas may also be screened to select for those producing antibodies having a high affinity for salinomycin. Affinity my be measured using a variety of well known techniques, such as ELISA, RIA or equilibrium dialysis using labelled salinomycin. […] In accordance with this embodiment, the antibody containing supernatant is added to a salinomycin coated solid substrate such as the wells of an assay plate, together with a range of concentrations of free salinomycin as a competitor. Following incubation and washing, bound antibody in the wells is determined in the same manner as the db-ELISA. Percent inhibition may be calculated as (1-B/BO)×100 where B is the OD of a well with a competitor and BO is the mean OD of the wells without competitor (control). […] However, for even greater accuracy, the affinity may be alternatively measured at 50% inhibition (IC50).
(§2) For the competitive inhibition ELISA, the wells of a 96-well microtiter plate were coated with 250 ng SAL-BSA and blocked with ovalbumin as previously described. Two hundred μL of a competitor (free salinomycin at 20-100 ng/100 μL) in assay buffer, were added to row 2 of an antigen-coated well. The remaining wells in that row received 100 μL of assay buffer. A 100 μL aliquot of competitor was withdrawn from row 2 and serially diluted across the microtiter plate into wells 3-10. Wells 11 and 12 received no competitor. […] Plates were incubated for 1-h at 37° C. and processed as described above in the db ELISA. Percent inhibition was calculated by the following method: (1-B/B0)×100where B=the OD of a well with a competitor and B0 =mean ODs of the wells without competitor (i.e. wells 11 and 12).
(§3) Antibody Characterization. The 16 monoclonal antibodies were further evaluated for their ability to distinguish between commonly used ionophoric coccidiostats. The competitive inhibition ELISA described supra was repeated with the ionophores salinomycin (SAL), narasin (NAR), lasalocid (LAS) and monensin (MON) as competitors.

[2] = tested on: anti-salinomycin monoclonal antibody SAL07 (IgG2a, kappa); experiment: Competitive inhibition ELISA (SAL-BSA coated wells); assay type: binding, mouse; conditions: mean ± SD, n = 10 assays
Protocol: as §1, §2, §3

[3] = tested on: anti-salinomycin monoclonal antibody SAL02 (IgG2a, kappa; hybridoma ATCC HB 11954); experiment: as above; assay type: binding, mouse; conditions: mean ± SD, n = 10 assays
Protocol: as §1, §2, §3

[4] = tested on: anti-salinomycin monoclonal antibody SAL13 (IgG2a, kappa); experiment: as above; assay type: binding, mouse; conditions: mean ± SD, n = 10 assays
Protocol: as §1, §2, §3

[5] = tested on: anti-salinomycin monoclonal antibody SAL03 (IgG2a, kappa); experiment: as above; assay type: binding, mouse; conditions: mean ± SD, n = 10 assays
Protocol: as §1, §2, §3

[6] = tested on: anti-salinomycin monoclonal antibody SAL23 (IgG2a, kappa); experiment: as above; assay type: binding, mouse; conditions: mean ± SD, n = 10 assays
Protocol: as §1, §2, §3

[7] = tested on: anti-salinomycin monoclonal antibody SAL22 (IgG2a, kappa); experiment: as above; assay type: binding, mouse; conditions: mean ± SD, n = 10 assays
Protocol: as §1, §2, §3

[8] = tested on: anti-salinomycin monoclonal antibody SAL25 (IgG2a, kappa); experiment: as above; assay type: binding, mouse; conditions: mean ± SD, n = 10 assays
Protocol: as §1, §2, §3

[9] = tested on: anti-salinomycin monoclonal antibody SAL11 (IgG2a, kappa); experiment: as above; assay type: binding, mouse; conditions: mean ± SD, n = 10 assays
Protocol: as §1, §2, §3

[10] = tested on: anti-salinomycin monoclonal antibody SAL09 (IgG2a, kappa); experiment: as above; assay type: binding, mouse; conditions: mean ± SD, n = 10 assays
Protocol: as §1, §2, §3

[11] = tested on: anti-salinomycin monoclonal antibody SAL08 (IgG2a, kappa); experiment: as above; assay type: binding, mouse; conditions: mean ± SD, n = 10 assays
Protocol: as §1, §2, §3

[12] = tested on: anti-salinomycin monoclonal antibody SAL05 (IgG2a, kappa); experiment: as above; assay type: binding, mouse; conditions: for Mean 50% Inhibition Value (IC50) of competitor: mean ± SD, n = 10 assays
Protocol: as §1, §2, §3

[13] = tested on: anti-salinomycin monoclonal antibody SAL24 (IgG2a, kappa); experiment: as above; assay type: binding, mouse; conditions: mean ± SD, n = 10 assays
Protocol: as §1, §2, §3

[14] = tested on: anti-salinomycin monoclonal antibody SAL04 (IgG2a, kappa); experiment: as above; assay type: binding, mouse; conditions: mean ± SD, n = 10 assays
Protocol: as §1, §2, §3

[15] = tested on: anti-salinomycin monoclonal antibody SAL10 (IgG2a, kappa); experiment: as above; assay type: binding, mouse; conditions: for Mean 50% Inhibition Value (IC50) of competitor: mean ± SD, n = 10 assays
Protocol: as §1, §2, §3

[16] = tested on: anti-salinomycin monoclonal antibody SAL12 (IgG2a, kappa); experiment: as above; assay type: binding, mouse; conditions: mean ± SD, n = 10 assays
Protocol: as §1, §2, §3

[17] = tested on: anti-salinomycin monoclonal antibody SAL06 (IgG2a, kappa); experiment: as above; assay type: binding, mouse; conditions: mean ± SD, n = 10 assays
Protocol: as §1, §2, §3

[18] = tested on: monoclonal antibodies to salinomycin of Miller et al. (immunogen linked through succinate at C-20); conditions: prior art antibodies; cited from earlier work
[19] = at or below 100 ng/well (10 ppm), Table I footnote
[20] = at or below 1000 ng/well, all 16 antibodies

| SMILES | inhibition of antigen-antibody binding by competitor [1, 19] | inhibition of antigen-antibody binding by competitor [1, 20] | Mean 50% Inhibition Value (IC50) of competitor [2] [ng/well] | Mean 50% Inhibition Value (IC50) of competitor [3] [ng/well] | Mean 50% Inhibition Value (IC50) of competitor [4] [ng/well] | Mean 50% Inhibition Value (IC50) of competitor [5] [ng/well] | Mean 50% Inhibition Value (IC50) of competitor [6] [ng/well] | Mean 50% Inhibition Value (IC50) of competitor [7] [ng/well] | Mean 50% Inhibition Value (IC50) of competitor [8] [ng/well] | Mean 50% Inhibition Value (IC50) of competitor [9] [ng/well] | Mean 50% Inhibition Value (IC50) of competitor [10] [ng/well] | Mean 50% Inhibition Value (IC50) of competitor [11] [ng/well] | Mean 50% Inhibition Value (IC50) of competitor [12] [ng/well] | Mean 50% Inhibition Value (IC50) of competitor [13] [ng/well] | Mean 50% Inhibition Value (IC50) of competitor [14] [ng/well] | Mean 50% Inhibition Value (IC50) of competitor [15] [ng/well] | Mean 50% Inhibition Value (IC50) of competitor [16] [ng/well] | Mean 50% Inhibition Value (IC50) of competitor [17] [ng/well] | also measured |
| --- | --- | --- | --- | --- | --- | --- | --- | --- | --- | --- | --- | --- | --- | --- | --- | --- | --- | --- | --- |
| CC[C@@H](C(=O)[C@@H](C)[C@@H](O)[C@H](C)CCc1ccc(C)c(O)c1C(=O)O)[C@H]1O[C@](CC)([C@H]2CC[C@](O)(CC)[C@H](C)O2)C[C@@H]1C [lasalocid] | Neither Lasalocid or Monensin inhibited the antigenantibody binding | no inhibition of antigen-antibody binding | – | – | – | – | – | – | – | – | – | – | – | – | – | – | – | – | – |
| CC[C@@]1([C@@H]2O[C@@H]([C@H]3O[C@@](O)(CO)[C@H](C)C[C@@H]3C)C[C@@H]2C)CC[C@H]([C@]2(C)CC[C@]3(C[C@H](O)[C@@H](C)[C@@H]([C@@H](C)[C@@H](OC)[C@H](C)C(=O)O)O3)O2)O1 [monensin] | Neither Lasalocid or Monensin inhibited the antigenantibody binding | no inhibition of antigen-antibody binding | – | – | – | – | – | – | – | – | – | – | – | – | – | – | – | – | – |
| CC[C@@H](C(=O)O)[C@@H]1O[C@@H]([C@@H](C)[C@H](O)[C@H](C)C(=O)[C@H](CC)[C@H]2O[C@]3(C=C[C@@H](O)[C@]4(CC[C@@](C)([C@H]5CC[C@](O)(CC)[C@H](C)O5)O4)O3)[C@H](C)C[C@@H]2C)[C@@H](C)C[C@@H]1C [narasin] | – | – | 0.93 ± 0.85 | 0.97 ± 0.97 | 0.55 ± 0.20 | 0.82 ± 0.58 | 0.99 ± 0.25 | 0.51 ± 0.09 | 0.68 ± 0.34 | 0.69 ± 0.28 | 1.17 ± 0.27 | 1.09 ± 0.15 | 0.52 ± 0.62 | 0.98 ± 0.46 | 0.34 ± 0.15 | 1.18 ± 0.49 | 0.67 ± 0.19 | 0.39 ± 0.15 | – |
| CC[C@@H](C(=O)[C@@H](C)[C@@H](O)[C@H](C)[C@@H]1O[C@@H]([C@@H](CC)C(=O)O)CC[C@@H]1C)[C@H]1O[C@]2(C=C[C@@H](O)[C@]3(CC[C@@](C)([C@H]4CC[C@](O)(CC)[C@H](C)O4)O3)O2)[C@H](C)C[C@@H]1C [salinomycin] | – | – | 1.44 ± 1.28 | 0.62 ± 0.11 | 0.75 ± 0.49 | 0.78 ± 0.72 | 0.92 ± 0.15 | 0.56 ± 0.23 | 0.61 ± 0.18 | 0.57 ± 0.25 | 0.97 ± 0.28 | 0.60 ± 0.30 | 0.33 ± 0.10 | 1.15 ± 0.45 | 0.35 ± 0.17 | 1.76 ± 0.29 | 0.49 ± 0.28 | 0.78 ± 0.62 | concentration that resulted in 20% inhibition (IC20) of control activity ([12]; free salinomycin as competitor): 0.174 ng; concentration that resulted in 50% inhibition IC50 ([12]; free salinomycin as competitor): 0.33 ng; concentration that resulted in 20% inhibition (IC20) of control activity ([15]; free salinomycin as competitor): 0.793 ng; concentration that resulted in 50% inhibition IC50 ([15]; free salinomycin as competitor): 1.76 ng; detection limit (reported) [18]: 50 ng; sensitivity (reported) [18]: 50 ng per well |
